# Source: EP2662079A1 (Ordway Research Institute, Inc., priority 2012, dated 2013)
# Columns and labels:
# [1] = system: U87MG cells; assay: Clonogenic survival after 250 kVp x-irradiation; assay type: cell-based, human
# Method: To irradiate culture flasks, a Philips 250 kVp x-ray machine (Philips Corp., Fall River, MA) operated at 250 kVp and 15 mA with added filtration of a 0.4 mm Thoreaus filter was used. The target to source distance was 30 cm. Dose rates were measured using an R-meter (Victoreen Co., Cleveland, OH), and converted to absorbed (Gy) doses using appropriate temperature, pressure, and R to Gy conversion factors. The dose rate was approximately 1 Gy/min. Flasks were irradiated after being taken from a 37°C environment and moved to the x-ray source. Movement at ambient temperature took approximately 1-2 min. Cells were next placed on ice and allowed to cool for 5 min. Lastly, flasks were placed in the Philips irradiator on top of a 2 mm thickness of Lucite which was on top of a layer of crushed ice. […]
# For SHMT analysis, data lying at or below a fractional survival (FxS) value of 0.368 were fit using a linear regression analysis of the log survival data versus linear dose. From this fit the extrapolation number (n), the quasi-threshold dose (Dq, Gy) and the inverse of the inactivation slope (Do, Gy) were derived.
# For LQ analyses, survival data lying between the fractional survivals of 1.00 and 0.05 were used. The log survival data were transformed to a linear form using the relationship (- ln FxS/D) and plotted against D. A linear regression analysis was performed to yield the LQ equation along with the 95% confidence limits on the γ-intercept (alpha) and the slope (beta) using a t-table with the appropriate (N-1) degrees of freedom. (See Goldstein A. Biostatistics, Academic Press, 1995.)
# [2] = system: chick chorioallantoic membrane (CAM); assay: Chorioallantoic membrane (CAM) model of angiogenesis; assay type: in vivo
# Method: In vivo neovascularization was examined by methods described previously. 9-12 Ten-day-old chick embryos were purchased from SPAFAS (Preston, CT) and incubated at 37°C with 55% relative humidity. A hypodermic needle was used to make a small hole in the shell concealing the air sac, and a second hole was made on the broad side of the egg, directly over an avascular portion of the embryonic membrane that was identified by candling. A false air sac was created beneath the second hole by the application of negative pressure at the first hole, causing the CAM to separate from the shell. A window approximately 1.0 cm^2 was cut in the shell over the dropped CAM with a small-crafts grinding wheel (Dremel, division of Emerson Electric Co.), allowing direct access to the underlying CAM. FGF2 (1µg/mL) was used as a standard proangiogenic agent to induce new blood vessel branches on the CAM of 10-day-old embryos. Sterile disks of No. 1 filter paper (Whatman International) were pretreated with 3 mg/mL cortisone acetate and 1 mmol/L PTU and air dried under sterile conditions. Thyroid hormone, hormone analogs, FGF2 or control solvents, and inhibitors were then applied to the disks and the disks allowed to dry. The disks were then suspended in PBS and placed on growing CAMs. […] At 24 hours, the MAPK cascade inhibitor PD 98059 was also added to CAMs topically by means of the filter disks.
# After incubation at 37°C with 55% relative humidity for 3 days, the CAM tissue directly beneath each filter disk was resected from control and treated CAM samples. Tissues were washed 3X with PBS, placed in 35-mm Petri dishes (Nalge Nunc), and examined under an SV6 stereomicroscope (Zeiss) at X50 magnification. Digital images of CAM sections exposed to filters were collected using a 3-charge-coupled device color video camera system (Toshiba) and analyzed with Image-Pro software (Media Cybernetics). The number of vessel branch points contained in a circular region equal to the area of each filter disk were counted. One image was counted in each CAM preparation, and findings from 8 to 10 CAM preparations were analyzed for each treatment condition (thyroid hormone or analogs, FGF2, FGF2 antibody, PD 98059). In addition, each experiment was performed 3 times. The resulting angiogenesis index is the mean ± SEM of new branch points.
# [3] = system: h-MTC cells; assay: RNA microarray of MTC cells; assay type: cell-based, human
# Excerpt: (§1) Treatment of animals with unmodified or nanoparticulate Tetrac. […] Estimation of tumor response to Tetrac or nanoparticulate Tetrac. […] Statistical analysis for CAM and xenograft studies. […] Statistical significance was defined as P <0.05. RNA microarray analysis.
# [4] = system: Human medullary carcinoma cells (TT); assay type: in vivo
# Excerpt: Cells and cell culture. […] Tetrac versus Tetrac NP distribution in h-MTC. […] Penicillin streptomycin (1%) was present in both culture media. […] Cell implantation in nude mice. […] Water and food were provided ad libitum.
# as §1
structure (smiles),measurement,setting,value
"O=C(O)Cc1cc(I)c(Oc2cc(I)c(O)c(I)c2)c(I)c1 [Tetrac, 3,3',5,5'-tetraiodothyroacetic acid]",increase of α (ratio of the alpha values),[1],3.6 fold
same,increase of β,[1],4.8 fold
same,median sensitization factor,[1],3.6
same,ratio of relative survival values at 2 Gy,[1],4.6
same,reduction of the DQ value,[1],100%
same,reduction of the Do value,[1],31%
same,α,"[1]; LQ, Tetrac treated cells",0.817 (± 0.091)
same,β,"[1]; LQ, Tetrac treated cells",0.076 (± 0.006)
same,DQ (Gy),"[1]; SHMT, Tetrac treated cells",0.00 ± 0.22 Gy
same,Do (Gy),"[1]; SHMT, Tetrac treated cells",1.09 ± 0.36 Gy
same,relative survival at 2 Gy,[1]; Tetrac treated cells (control 59.6),12.8
same,isoeffect comparison ratio,[1]; at 10% survival,2.2
same,average sensitization factor,"[1]; average of 3 comparisons, range of 2.2 to 4.6",3.5
same,effect of Tetrac alone on angiogenesis,[2]; CAM model (Figure 3C),no effect
same,Mean Branch points,"[2]; CAM model, FGF (1.25 µg/ml) + compound at 10 µg/plug, n=8",81± 8
same,effect on the action of T4 in the CAM model,[2]; Tetrac 0.1 µmol/L,inhibited
same,expression of VEGFA,[3],significantly decreased expression
same,"expression of apoptosis-associated genes (CASP2, DFFA, FAF1, CASP8AP2)",[3],caused expression
same,expression of thrombospondin (THBS1),[3],increase
same,reduction of tumor mass compared to controls,"[4]; Tetrac 10 mg/kg i.p., nanoparticulate Tetrac 1 mg/kg i.p., end of study",65-80%
same,decrease of tumor tissue hemoglobin content,[4]; Tetrac 10 mg/kg or Tetrac NP 1 mg/kg i.p. daily for 3 weeks,66%
same,reduction in tumor-associated neovascularization (hemoglobin levels in tumor tissue),[4]; Tetrac 10 mg/kg or Tetrac NP 1 mg/kg i.p. daily for 21 days,70-80%
same,tumor size,"[4]; Tetrac 10 mg/kg or Tetrac NP 1 mg/kg i.p. daily, over 21 days",< 100 mm^3
same,time to detected reduction in tumor size,[4]; after initiation of treatment,≤ 2 days
